ChEMBL document CHEMBL5604062, “ASAP - ZIKV NS2B-NS3 protease fluorescence dose response” (2024)
Several values for one entry are separate records, joined by “and”; a condition that tells them apart may be missing. Identical values can stand only once.

molecular target: Nonstructural protein 3 (Zika virus, UniProt A0A024AXB9); assay: Functional biochemical assay to identify treatments for viral infectious disease that targets Zika NS2B-NS3 protease. Utilizing a direct enzyme activity measurement method, reading the fluorescence intensity is used to characterize the relative potency of inhibitors as IC50.; design: species or system PRVABC59
Sequence (A0A024AXB9 whole entry): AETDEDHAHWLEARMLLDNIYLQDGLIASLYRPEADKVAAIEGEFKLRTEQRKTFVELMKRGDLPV

SMILES	IC50
Cn1nc([C@H](C#N)Nc2cccc([C@H]3CCOC3)c2)cc1C1CC1	> 25000 nM
C=CC[C@H](Nc1cc([C@H]2CCOC2)ccn1)c1cc(C2CC2)n(C)n1	> 25000 nM
O=C(O)c1ccc(-c2cc(NC(=O)c3cc(F)cc4[nH]ncc34)cc3c2CNC3)cc1	35 nM and 29 nM
CO[C@H]1C[C@H](n2cc3c(C(=O)Nc4ccc5c(c4)CNC5)cc(Cl)cc3n2)C1	219 nM
O=C(Nc1ccc2c(c1)CNC2)c1cc(F)cc(-c2cn[nH]c2)c1	34 nM and 23 nM
O=C(Nc1ccc2c(c1)CNC2)c1cc(F)cc(-c2ccnc3c2CCO3)c1	1190 nM
COc1ccc(OC)c([C@H]2CCCN2C(=O)Nc2ccc3c(c2)CNC3)c1	> 25000 nM
Fc1cc(CNc2ccc3c(n2)CNC3)c2cn[nH]c2c1	> 25000 nM
COC[C@]1(c2nc3c(C(=O)Nc4ccc5c(c4)CNC5)cc(F)cc3[nH]2)CCOC1	344 nM
CC(=O)N1CCCc2cc(NC(=O)c3cc(C4CC4)n(C)c3C)ccc21	> 25000 nM
N#Cc1c[nH]c2ccc(C(=O)Nc3ccc4c(c3)CNC4)cc12	494 nM
O=C(Nc1ccc2c(c1)CNC2)c1cc(F)cc(C2=CCCOC2)c1	295 nM
Cc1c(C(=O)Nc2cc(-c3cccnc3)ccn2)cnn1C1CC1	> 25000 nM
CNC(=O)[C@H](Nc1ccc2c(c1)CNC2)c1cc(Cl)cc2[nH]c(-c3ccccc3)nc12	29 nM and 13 nM
O=C(Nc1ccc2c(c1)CN[C@H]2C[C@H](O)CO)c1cc(F)cc2[nH]ncc12	77 nM and 69 nM
CC(C)Cn1cc2c(C(=O)Nc3ccc4c(c3)CNC4)cc(Cl)cc2n1	269 nM
O=C(Nc1ccc2c(c1)CNC2)c1cc(Cl)cc2nn(C3CCOCC3)cc12	132 nM
O=C(NCCCF)[C@H](Nc1ccc2c(c1)CNC2)c1cc(Cl)cc(C2CC2)c1	59 nM and 33 nM
O=C(Nc1ccc2c(c1)CNC2)c1cc(F)cc(-c2ccc3c(=O)[nH]ncc3c2)c1	456 nM and 295 nM
CC(C)c1nn(C)cc1-c1cc(F)cc(C(=O)Nc2ccc3c(c2)CNC3)c1	632 nM
O=C(Nc1ccc2c(c1)CNC2)c1ccc2ncsc2n1	23500 nM
COc1cc(C(=O)Nc2ccc3c(c2)CNC3)cc2ccoc12	917 nM
NC[C@H]1OCCc2sc(C(=O)Nc3cc(-c4cccnc4)ccn3)cc21	> 25000 nM
CN(C)c1nc(-c2cc(F)cc(C(=O)Nc3ccc4c(c3)CNC4)c2)cs1	146 nM

SMILES	IC50
O=C(Nc1cc([C@H]2CCOC2)ccn1)c1cc(F)cc2[nH]ncc12	> 25000 nM
CC(C)n1cc(C(=O)Nc2cc(-c3cccnc3)ccn2)cn1	> 25000 nM
O=C(Nc1ccc2c(c1)CNC2)c1cc(Cl)cc2nn(C3COC3)cc12	539 nM
Nc1n[nH]c2cc(C(=O)Nc3ccc4c(c3)CNC4)ccc12	> 25000 nM
CCCn1cc2c(C(=O)Nc3ccc4c(c3)CNC4)cc(Cl)cc2n1	67 nM and 36 nM
O=C(Nc1cc([C@H]2CCOC2)ccn1)c1ccc2scnc2c1	> 25000 nM
CC(C)NC(=O)[C@H](Nc1ccc2c(c1)CN(C)C2(C)C)c1cc(Cl)cc2[nH]ncc12	3830 nM
O=C(NCCOCC1CC1)[C@H](Nc1ccc2c(c1)CNC2)c1cc(Cl)cc(C2CC2)c1	79 nM and 50 nM
Cc1cc(C(=O)Nc2cc(-c3cccnc3)ccn2)c(C)n1C	> 25000 nM
O=C(Nc1ccc2c(c1)CN[C@H]2c1ccccc1)c1cc(F)cc2[nH]ncc12	1890 nM
O=C1CCc2c(cccc2C(=O)Nc2ccc3c(c2)CNC3)N1	960 nM
CCCCNC(=O)[C@H](Nc1ccc2c(c1)CNC2)c1cc(Cl)cc(C2CC2)c1	57 nM and 30 nM
O=C(Nc1cc(-c2cccnc2)ccn1)c1cn([C@H]2CCCNC2)nn1	> 25000 nM
Cc1c(C(=O)Nc2cc(-c3cccnc3)ccn2)cc(C#N)n1C	> 25000 nM
O=S(=O)(Nc1ccc2c(c1)CNC2)c1cccc2[nH]ncc12	> 25000 nM
O=C(NCC(F)F)[C@H](Nc1ccc2c(c1)CNC2)c1cc(Br)cc2[nH]ccc12	77 nM and 44 nM
O=C1Cc2c(cccc2C(=O)Nc2cc([C@H]3CCOC3)ccn2)N1	> 25000 nM
O=C(Nc1ccc2c(c1)CNC2)c1cccc2c1[C@]1(CCNC1)C(=O)N2	113 nM
Cc1ncc(-c2cc(F)cc(C(=O)Nc3ccc4c(c3)CNC4)c2)s1	71 nM and 52 nM
CO[C@H](C)Cn1cc2c(C(=O)Nc3ccc4c(c3)CNC4)cc(Cl)cc2n1	364 nM
O=C(Nc1cc(-c2cccnc2)ccn1)c1ccc(C2CC2)cc1	> 25000 nM
CC1=C(c2cc(F)cc(C(=O)Nc3ccc4c(c3)CNC4)c2)CCCC1	> 25000 nM
O=C(Nc1ccc2c(c1)CNC2)c1cc(F)cc(-c2c[nH]c(=O)c(F)c2)c1	73 nM and 43 nM
C=Cc1cc2c(cc1NC(=O)c1cc(F)cc3[nH]ncc13)CNC2	45 nM and 28 nM

SMILES	IC50
COc1cc(C(=O)Nc2ccc3c(c2)CNC3)cc2cnn(C)c12	> 25000 nM
O=C(Nc1cc(-c2cccnc2)ccn1)c1nc(Br)n2c1CNCC2	> 25000 nM
O=C(Nc1ccc2c(c1)CNC2)c1cc(F)cc2[nH]c(-c3ccccc3F)nc12	23 nM (2×) and 13 nM
O=C(Nc1cc([C@H]2CCOC2)ccn1)c1cc(Cl)cc2[nH]ncc12	> 25000 nM
Cc1nn(C)c(C)c1[C@H]1CCCN1C(=O)Nc1ccc2c(c1)CNC2	> 25000 nM
CC(C)NC(=O)[C@H](Nc1ccc2c(c1)CNC2)c1cccc2cn[nH]c12	10900 nM
O=C(Nc1cc2c(cc1C1CC1)CNC2)c1cc(F)cc2[nH]ncc12	92 nM and 46 nM
C#C[C@H](Nc1cc([C@H]2CCOC2)ccn1)c1cc(C2CC2)n(C)n1	> 25000 nM
CC(C)NC(=O)[C@H](Nc1ccc2c(c1)CN(CC(F)F)C2)c1cc(Cl)cc2[nH]ncc12	> 25000 nM
O=C(Nc1ccc2c(c1)CNC2)c1cc(F)cc(/C=C/c2ccccc2)c1	165 nM
O=C(NCC(F)F)[C@H](Nc1ccc2c(c1)CNC2)c1cc(Cl)cc2[nH]ncc12	291 nM
Cn1ncc2c(C(=O)Nc3ccc4c(c3)CNC4)cc(Cl)cc21	47 nM and 27 nM
O=C(Nc1cc(-c2cccnc2)ccn1)c1cc2n(c1)CCC2	> 25000 nM
O=C(Nc1ccc2c(c1)CN[C@H]2CCO)c1cc(F)cc2[nH]ncc12	116 nM
CCc1cccc(-c2nc3c(C(=O)Nc4ccc5c(c4)CNC5)cc(F)cc3[nH]2)c1	53 nM (2×) and 32 nM
Cc1cnccc1-c1cc(NC(=O)c2cc(F)cc3[nH]ncc23)cc2c1CNC2	116 nM
O=C(Nc1cc([C@H]2CCOC2)ccn1)c1cc(Br)cc2[nH]ccc12	> 25000 nM
O=C(O)CCCc1cc(NC(=O)c2cc(F)cc3[nH]ncc23)cc2c1CNC2	62 nM and 38 nM
Cc1c(C(=O)Nc2cc(-c3cccnc3)ccn2)c2ccccc2n1C	> 25000 nM
O=C(Nc1ccc2c(c1)CNC2)c1cc(Cl)cc2nn(C3CCC3)cc12	176 nM
Cc1cc(-c2cc(F)cc(C(=O)Nc3ccc4c(c3)CNC4)c2)[nH]n1	90 nM and 55 nM
O=C(Nc1ccc2c(c1)CNC2)c1cc(Cl)cc2c1cnn2C1CCOCC1	58 nM and 33 nM
Cc1c(C(=O)Nc2cccc(-c3cncnc3O)c2)cc(C2CC2)n1C	> 25000 nM
Cn1cc2c(C(=O)Nc3ccc4c(c3)CNC4)cc(Cl)cc2n1	159 nM

SMILES	IC50
O=C(Nc1cc([C@H]2CCOC2)ccn1)c1cc(F)c2[nH]ccc2c1	> 25000 nM
CSCCNC(=O)[C@H](Nc1ccc2c(c1)CNC2)c1cc(Cl)cc(C2CC2)c1	62 nM and 49 nM
CS(=O)(=O)N1CC[C@]2(C1)C(=O)Nc1cccc(C(=O)Nc3ccc4c(c3)CNC4)c12	369 nM
COc1ccc([C@H]2C[C@H](C)CN2C(=O)Nc2ccc3c(c2)CNC3)cc1	> 25000 nM
Cc1c(C(=O)Nc2cc(-c3cccnc3)ccn2)cc(CC(C)(C)C)n1C	> 25000 nM
CSCCCNC(=O)[C@H](Nc1ccc2c(c1)CNC2)c1cc(Cl)cc(C2CC2)c1	126 nM
CC(C)(C)c1noc2nc(C(=O)Nc3ccc4c(c3)CNC4)ccc12	> 25000 nM
O=C(Nc1ccc2c(c1)CNC2)c1cc(F)cc2nn(-c3ccccn3)nc12	111 nM and 130 nM
CC(C)(c1nc2c(C(=O)Nc3ccc4c(c3)CNC4)cc(F)cc2[nH]1)S(C)(=O)=O	405 nM and 264 nM
O=C(Nc1cc(-c2cccnc2)ccn1)c1c[nH]c2ncccc12	> 25000 nM
COCCCNC(=O)[C@H](Nc1ccc2c(c1)CNC2)c1cc(Cl)cc(C2CC2)c1	88 nM and 71 nM
NCCc1csc2cc(C(=O)Nc3ccc4c(c3)CNC4)ccc12	144 nM
O=C(Nc1ccc2c(c1)CN[C@H]2C[C@H](O)CO)c1cc(Cl)cc2[nH]ncc12	198 nM
Cn1c(=O)[nH]c2cc(C(=O)Nc3ccc4c(c3)CNC4)cc(Br)c21	6850 nM
O=C(Nc1ccc2c(c1)CNC2)c1ccc2c(Br)csc2c1	2190 nM
C=C[C@H]1NCc2cc(NC(=O)c3cc(F)cc4[nH]ncc34)ccc21	359 nM
O=C(Nc1cc2c(c(-c3ccnnc3)c1)CNC2)c1cc(Cl)cc2[nH]ncc12	62 nM and 35 nM
CC(C)(C)OC(=O)N1Cc2ccc(NC(=O)c3ccc4c(Br)csc4c3)cc2C1	> 25000 nM
Clc1ccc2[nH]ncc2c1[C@@H]1C[C@H]1c1ccc2c(c1)CNC2	22400 nM
O=C(Nc1ccc2c(c1)CNC2)c1cc(F)cc(-c2ccncc2)c1	215 nM
Cc1cc(C(=O)Nc2cc(-c3cccnc3)ccn2)nn1CCN	> 25000 nM
